Consider eleven compounds from patent publication US20250346574A1, “PYRIDINYL SUBSTITUTED OXOISOINDOLINE COMPOUNDS FOR THE TREATMENT OF CANCER” (Bristol-Myers Squibb Company, priority 2021, published 2025).

SMILES strings stand for the structures. Some results are limits rather than exact numbers.

T1 sequence (Q9UKS7 whole entry): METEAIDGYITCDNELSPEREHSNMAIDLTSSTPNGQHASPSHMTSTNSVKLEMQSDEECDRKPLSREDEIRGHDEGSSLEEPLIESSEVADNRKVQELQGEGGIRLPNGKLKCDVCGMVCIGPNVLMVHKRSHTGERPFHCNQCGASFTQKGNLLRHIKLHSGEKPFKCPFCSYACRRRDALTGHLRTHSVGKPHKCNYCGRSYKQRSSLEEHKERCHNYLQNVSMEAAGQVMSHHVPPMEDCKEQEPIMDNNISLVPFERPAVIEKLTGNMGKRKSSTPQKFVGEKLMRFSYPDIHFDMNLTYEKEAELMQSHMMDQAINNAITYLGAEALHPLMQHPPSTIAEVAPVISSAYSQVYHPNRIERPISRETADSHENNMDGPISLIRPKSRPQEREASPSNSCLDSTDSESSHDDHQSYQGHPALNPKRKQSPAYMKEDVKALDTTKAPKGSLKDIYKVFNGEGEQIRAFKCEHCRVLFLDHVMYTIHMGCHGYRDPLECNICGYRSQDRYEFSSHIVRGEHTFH
T1 sequence (Q96SW2 whole entry): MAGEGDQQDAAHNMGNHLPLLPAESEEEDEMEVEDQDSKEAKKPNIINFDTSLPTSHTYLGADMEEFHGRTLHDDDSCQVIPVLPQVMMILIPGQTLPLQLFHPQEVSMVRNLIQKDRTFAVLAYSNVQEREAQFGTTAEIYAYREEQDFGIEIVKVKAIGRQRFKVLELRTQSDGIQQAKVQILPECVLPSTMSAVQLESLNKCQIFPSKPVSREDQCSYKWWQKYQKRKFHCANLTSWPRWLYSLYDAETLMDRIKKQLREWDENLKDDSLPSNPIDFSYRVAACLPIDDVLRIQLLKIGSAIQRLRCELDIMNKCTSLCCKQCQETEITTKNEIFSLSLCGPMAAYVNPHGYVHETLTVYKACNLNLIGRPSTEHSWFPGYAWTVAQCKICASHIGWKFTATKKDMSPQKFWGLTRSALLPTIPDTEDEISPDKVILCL
T1 sequence (Q16531 whole entry partner): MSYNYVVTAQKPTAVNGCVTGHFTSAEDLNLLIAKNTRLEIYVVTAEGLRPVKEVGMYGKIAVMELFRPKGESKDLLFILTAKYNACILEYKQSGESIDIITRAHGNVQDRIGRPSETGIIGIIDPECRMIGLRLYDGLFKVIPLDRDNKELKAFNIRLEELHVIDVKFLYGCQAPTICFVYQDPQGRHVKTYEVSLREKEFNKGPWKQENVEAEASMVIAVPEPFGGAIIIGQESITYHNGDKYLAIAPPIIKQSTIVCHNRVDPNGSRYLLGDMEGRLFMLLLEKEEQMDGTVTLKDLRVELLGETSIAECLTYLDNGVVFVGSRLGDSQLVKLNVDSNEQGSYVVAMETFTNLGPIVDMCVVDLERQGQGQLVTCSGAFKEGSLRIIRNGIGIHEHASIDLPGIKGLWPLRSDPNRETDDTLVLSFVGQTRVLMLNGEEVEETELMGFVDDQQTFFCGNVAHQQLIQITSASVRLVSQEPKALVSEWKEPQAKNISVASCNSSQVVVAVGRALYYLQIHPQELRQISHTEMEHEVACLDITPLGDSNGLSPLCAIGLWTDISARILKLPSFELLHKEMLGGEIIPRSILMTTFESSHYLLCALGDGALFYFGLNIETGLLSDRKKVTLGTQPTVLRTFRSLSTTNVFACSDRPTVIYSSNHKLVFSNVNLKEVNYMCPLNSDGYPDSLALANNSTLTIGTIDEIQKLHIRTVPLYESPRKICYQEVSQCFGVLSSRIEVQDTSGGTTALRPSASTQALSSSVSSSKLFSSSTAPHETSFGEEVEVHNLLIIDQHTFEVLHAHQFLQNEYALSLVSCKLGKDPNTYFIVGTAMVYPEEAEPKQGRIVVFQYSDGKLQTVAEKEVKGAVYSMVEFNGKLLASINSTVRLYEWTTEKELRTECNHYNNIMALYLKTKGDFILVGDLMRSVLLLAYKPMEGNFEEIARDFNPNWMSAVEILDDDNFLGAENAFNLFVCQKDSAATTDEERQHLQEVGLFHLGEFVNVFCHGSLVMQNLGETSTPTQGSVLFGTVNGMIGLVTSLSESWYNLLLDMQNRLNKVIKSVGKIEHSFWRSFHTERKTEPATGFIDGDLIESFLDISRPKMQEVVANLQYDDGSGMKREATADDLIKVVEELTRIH

One test has as its target T1, Helios (Homo sapiens, UniProt Q96SW2+Q9UKS7). Description: Helios Human T Regulatory Cells Degradation Assay. Format: cell-based. Details: fluorescently labelled antibodies against Helios in 1× Permeabilization buffer; endogenous in cells; host or cells: cryopreserved human T regulatory cells. To be noted: cryopreserved human T regulatory cells, incubated 20 hours, Helios-APC antibody staining, flow cytometry; read-out: hTreg Helios DC50. The gist of the method:
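Cryopreserved human Treg cells thawed in RPMI+10% FBS+20 ng/mL IL-2, rested 3 h, then incubated with compound 20 hours at 37° C, 5% CO2. Near-IR viability stain, permeabilization, flow cytometry read-out.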
For `CC(=O)N1CC2CCCN(Cc3ccnc(-c4ccc5c(c4)CN(C4CCC(=O)NC4=O)C5=O)c3F)C2C1` (centres unmarked) [Example 274, 3-(5-(4-((6-acetyloctahydro-1H-pyrrolo[3,4-b]pyridin-1-yl)methyl)-3-fluoropyridin-2-yl)-1-oxoisoindolin-2-yl)piperidine-2,6-dione], the DC50 was ≥ 10000 nM.
As for `COC(=O)N1CC2CCCN(Cc3ccnc(-c4ccc5c(c4)CN(C4CCC(=O)NC4=O)C5=O)c3F)C2C1` (centres unmarked) [Example 275, methyl 1-((2-(2-(2,6-dioxopiperidin-3-yl)-1-oxoisoindolin-5-yl)-3-fluoropyridin-4-yl)methyl)octahydro-6H-pyrrolo[3,4-b]pyridine-6-carboxylate], the DC50 was ≥ 10000 nM.
Still for that read-out and setting: to `CC(C)(O)C1CCN(Cc2ccnc(-c3ccc4c(c3F)CN(C3CCC(=O)NC3=O)C4=O)c2F)CC1` (centres unmarked) [Example 276, 3-(4-fluoro-5-(3-fluoro-4-((4-(2-hydroxypropan-2-yl)piperidin-1-yl)methyl)pyridin-2-yl)-1-oxoisoindolin-2-yl)piperidine-2,6-dione] belongs 28 nM; to `O=C1CCC(N2Cc3c(ccc(-c4nccc(CN5CC[C@H](CO)C5)c4F)c3F)C2=O)C(=O)N1` (stereo partly drawn) [Example 277, 3-(4-fluoro-5-(3-fluoro-4-(((S)-3-(hydroxymethyl)pyrrolidin-1-yl)methyl)pyridin-2-yl)-1-oxoisoindolin-2-yl)piperidine-2,6-dione], 31.9 nM.
For the compound `CC(C)(O)[C@@H]1CCN(Cc2ccnc(-c3ccc4c(c3F)CN(C3CCC(=O)NC3=O)C4=O)c2F)C1` (stereo partly drawn) [Example 278, 3-(4-fluoro-5-(3-fluoro-4-(((R)-3-(2-hydroxypropan-2-yl)pyrrolidin-1-yl)methyl)pyridin-2-yl)-1-oxoisoindolin-2-yl)piperidine-2,6-dione], the DC50 came out at 31.8 nM.
For the compound `CC(C)(O)[C@H]1CCN(Cc2ccnc(-c3ccc4c(c3F)CN(C3CCC(=O)NC3=O)C4=O)c2F)C1` (stereo partly drawn) [Example 279, 3-(4-fluoro-5-(3-fluoro-4-(((S)-3-(2-hydroxypropan-2-yl)pyrrolidin-1-yl)methyl)pyridin-2-yl)-1-oxoisoindolin-2-yl)piperidine-2,6-dione], the DC50 was 34.3 nM.
`O=C1CCC(N2Cc3c(ccc(-c4nccc(CN5CCC(O)(c6ccccc6)CC5)c4F)c3F)C2=O)C(=O)N1` (centres unmarked) [Example 280, 3-(4-fluoro-5-(3-fluoro-4-((4-hydroxy-4-phenylpiperidin-1-yl)methyl)pyridin-2-yl)-1-oxoisoindolin-2-yl)piperidine-2,6-dione]: the DC50 was ≥ 10000 nM.
With `CC(C)(O)C1CN(Cc2ccnc(-c3ccc4c(c3F)CN(C3CCC(=O)NC3=O)C4=O)c2F)C1` (centres unmarked) [Example 281, 3-(4-fluoro-5-(3-fluoro-4-((3-(2-hydroxypropan-2-yl)azetidin-1-yl)methyl)pyridin-2-yl)-1-oxoisoindolin-2-yl)piperidine-2,6-dione], the DC50 came out at 22.1 nM.
`O=C1CCC(N2Cc3c(ccc(-c4nccc(CN5CCn6c(nnc6C(F)(F)F)C5)c4F)c3F)C2=O)C(=O)N1` (centres unmarked) [Example 282, 3-(4-fluoro-5-(3-fluoro-4-((3-(trifluoromethyl)-5,6-dihydro-[1,2,4]triazolo[4,3-a]pyrazin-7(8H)-yl)methyl)pyridin-2-yl)-1-oxoisoindolin-2-yl)piperidine-2,6-dione]: the DC50 is ≥ 10000 nM.
Consider `O=C1CCC(N2Cc3c(ccc(-c4nccc(CN5CCc6c(ccnc6Cl)C5)c4F)c3F)C2=O)C(=O)N1` (centres unmarked) [Example 283, 3-(5-(4-((5-chloro-3,4-dihydro-2,6-naphthyridin-2(1H)-yl)methyl)-3-fluoropyridin-2-yl)-4-fluoro-1-oxoisoindolin-2-yl) piperidine-2,6-dione], for which the DC50 is ≥ 10000 nM.

Another test has as its target T1, Helios. The test is described as follows: Helios Cellular Degradation Assay (Jurkat cells). It counts as cell-based. To be noted: incubated 72 h, Helios-PE antibody staining, flow cytometry, read-out: Helios Jurkat IC50. On the set-up: fluorescently labelled antibodies against Helios, Ikaros and Aiolos; endogenous in cells; host or cells: Jurkat cells. On the procedure:
Jurkat cells were plated at 80,000 cells/well in 40 μL RPMI+10% FBS in a 384 well cell culture plate prior to using acoustic dispensing technology for adding compound of interest. Cell cultures were incubated for 72 h at 37° C. and 5% CO2. In order to facilitate analysis, cell cultures were spun down at 200 rpm for 5 min and the supernatant was discarded. After shaking the plate to dislodge the cell pellet, cells were resuspended in 50 μL of Fixation Buffer (eBioScience FoxP3 buffer set 00-5523-00) for 60 min at room temperature. After centrifuging and discarding the supernatant, cells were permeabilized with 50 μL of Permeabilization buffer (eBioScience FoxP3 buffer set 00-5523-00) for 10 min at room temperature. Following permeabilization, cells were spun down and the supernatant was replaced with 20 μL fluorescently labelled antibodies against Helios, Ikaros and Aiolos or corresponding Isotype controls in 1× Permeabilization buffer (Ikaros-Alexa488 [Biolegend, Cat #368408, 1:50], Helios-PE [CST, Cat #29360, 1:50], Aiolos-Alexa647 [Biolegend, Cat #371106Biolegend, 1:25]) and staining reactions were incubated for 1 h at room temperature; protected from light. […] Stained cells were resuspended in 25 μL of flow cytometry staining buffer (PBS+0.2% BSA) and analyzed using an Intellicyt Ique Plus flow cytometer.
In the case of `NC(=O)C1CCN1Cc1ccnc(-c2ccc3c(c2)CN(C2CCC(=O)NC2=O)C3=O)c1` (centres unmarked) [Example 79, 1-((2-(2-(2,6-dioxopiperidin-3-yl)-1-oxoisoindolin-5-yl)pyridin-4-yl)methyl) azetidine-2-carboxamide], the DC50 is 736 nM.
